# Results: US20240033256A1, “INHIBITORS OF POSITIVE STRAND RNA VIRUSES” (priority 2020, published 2024)
# Test system: Dengue virus type 2
# Experiment: Dengue virus type 2 IFA assay (E protein) in Vero E6 cells
# Assay type: cell-based
# Details: Dengue virus, Vero C1008, 120 h, MOI 0.02, 5 days at 33° C, read-out: DV2 EC50
# Experimental: (§1) Compounds 1-9 were evaluated for their inhibitory activities against Dengue virus, another single positive-stranded RNA virus belonging to genus of flavivirus, using an IFA assay that targeted the Dengue virus Envelope (“E”) protein.
# (§2) Vero E6 cells (BCRC #60476, Bioresource Collection and Research Center, Hsinchu, Taiwan) were treated with one of Compounds 1-9 at a predetermined concentration for 1 hour at 37° C. The cells were infected with Dengue virus type 1 (“DV1”, ATCC VR-1856, American Type Culture Collection, Manassas, VA, USA) at MOI=0.002 or Dengue virus type 2 (“DV2”, ATCC VR-1584, American Type Culture Collection, Manassas, VA, USA) at MOI=0.02, both for 5 days at 33° C. They were then fixed with 10% formalin and permeabilized with methanol. Subsequently, the cells were stained with anti-flavivirus E antibody (ATCC HB-112, American Type Culture Collection, Manassas, VA, USA) and anti-mouse IgG-FITC (MP Biomedicals, Irvine, CA, USA). The nuclei of the cells were counter stained with DAPI (Thermo Fisher Scientific, MA, USA). The E protein expression was measured by using a high-content image analysis system (Molecular Devices). The cell viability was determined by MTS. EC50 and CC50 were calculated by Prism software.
row,Compound,EC50
1,CCN1CCc2c(c3cc(OC)c(OC)cc3c3cc(OC)ccc23)C1 [Compound 5],286 nM
2,COc1cc2c3c(c4cc(OC)c(OC)cc4c2cc1OC)C[N+]1([O-])CCCC1C3 (centres unmarked) [Compound 6],2640 nM
3,CCCN1Cc2c(c3cc(OC)c(OC)cc3c3cc(OC)c(OC)cc23)C(O)C1 (centres unmarked) [Compound 8],617 nM

# Same assay, conditions: MOI 0.02, 5 days at 33° C, read-out: DV2 EC50
row,Compound,EC50
1,"CCN1Cc2c(c3cc(OC)c(OC)cc3c3cc(OC)c(OC)cc23)C(O)C1 (single isomer, unassigned) [Compound 7]",124 nM
2,"CCN1Cc2c(c3cc(OC)c(OC)cc3c3cc(OC)c(OC)cc23)C(O)C1 (single isomer, unassigned) [Compound 9]",616 nM

# Test system: Zika virus
# Experiment: Zika virus IFA assay (E protein) in Vero E6 cells
# Assay type: cell-based
# Details: Vero E6 cells; MOI 0.02; 49 hours; read-out: EC50 (Zika virus)
# Experimental: Compounds 1-9 were evaluated for their inhibitory activities against Zika virus using an IFA assay, which targeted Zika virus Envelope (“E”) protein.
# (§3) Vero E6 cells (BCRC #60476, Bioresource Collection and Research Center, Hsinchu, Taiwan) were treated with one of Compounds 1-9 at a predetermined concentration for 1 hour at 37° C. The cells were adsorbed with Zika virus (ATCC VR-1843, American Type Culture Collection, Manassas, VA, USA) at MOI=0.02 for 49 hours at 37° C. The cells were fixed with 10% formalin, permeabilized with methanol. The cells were stained with anti-flavivirus E antibody (ATCC HB-112, American Type Culture Collection, Manassas, VA, USA) and anti-mouse IgG-FITC (MP Biomedicals, Irvine, CA, USA). The nuclei were counter stained with DAPI (in blue) (Thermo Fisher Scientific, MA, USA). The E protein expression was measured using a high-content image analysis system (Molecular Devices). The cell viability was determined by MTS. Both EC50 and CC50 were calculated by Prism software.
row,Compound,EC50
1,"CCN1Cc2c(c3cc(OC)c(OC)cc3c3cc(OC)c(OC)cc23)C(O)C1 (single isomer, unassigned) [Compound 7]",44.4 nM
2,"CCN1Cc2c(c3cc(OC)c(OC)cc3c3cc(OC)c(OC)cc23)C(O)C1 (single isomer, unassigned) [Compound 9]",144 nM

# Same assay, conditions: Zika virus, Vero C1008, 49 h, Vero E6 cells; MOI 0.02; 49 hours; read-out: EC50 (Zika virus)
row,Compound,EC50
1,CCN1CCc2c(c3cc(OC)c(OC)cc3c3cc(OC)ccc23)C1 [Compound 5],156 nM
2,COc1cc2c3c(c4cc(OC)c(OC)cc4c2cc1OC)C[N+]1([O-])CCCC1C3 (centres unmarked) [Compound 6],1040 nM
3,CCCN1Cc2c(c3cc(OC)c(OC)cc3c3cc(OC)c(OC)cc23)C(O)C1 (centres unmarked) [Compound 8],304 nM

# Test system: HCoV-OC43
# Experiment: HCoV-OC43 IFA assay (N protein) in HCT-8 cells
# Assay type: cell-based
# Details: Betacoronavirus 1, OC43; HCT-8 cells; MOI 0.05; means ± S.D. from three independent experiments; read-out: EC50 (HCoV-OC43)
row,Compound,EC50
1,COc1cc2c3c(c4cc(OC)c(OC)cc4c2cc1OC)C[N+]1([O-])CCCC1C3 (centres unmarked) [Compound 6],1890 ± 228 nM

# Same assay, conditions: CC50/EC50, HCT-8 cells
row,Compound,Selectivity index (HCoV-OC43)
1,COc1cc2c3c(c4cc(OC)c(OC)cc4c2cc1OC)C[N+]1([O-])CCCC1C3 (centres unmarked) [Compound 6],>5.3

# Test system: Dengue virus type 1
# Experiment: Dengue virus type 1 IFA assay (E protein) in Vero E6 cells
# Assay type: cell-based
# Details: Dengue virus, Vero C1008, 120 h, MOI 0.002, 5 days at 33° C, read-out: DV1 EC50
# Experimental: as §1, §2
row,Compound,EC50
1,CCN1CCc2c(c3cc(OC)c(OC)cc3c3cc(OC)ccc23)C1 [Compound 5],131 nM
2,COc1cc2c3c(c4cc(OC)c(OC)cc4c2cc1OC)C[N+]1([O-])CCCC1C3 (centres unmarked) [Compound 6],1640 nM
3,CCCN1Cc2c(c3cc(OC)c(OC)cc3c3cc(OC)c(OC)cc23)C(O)C1 (centres unmarked) [Compound 8],247 nM

# Same assay, conditions: MOI 0.002, 5 days at 33° C, read-out: DV1 EC50
row,Compound,EC50
1,"CCN1Cc2c(c3cc(OC)c(OC)cc3c3cc(OC)c(OC)cc23)C(O)C1 (single isomer, unassigned) [Compound 7]",73.1 nM
2,"CCN1Cc2c(c3cc(OC)c(OC)cc3c3cc(OC)c(OC)cc23)C(O)C1 (single isomer, unassigned) [Compound 9]",296 nM

# Test system: not listed separately
# Experiment: HCT-8 cell viability (MTS)
# Details: human, HCT-8 cells
row,Compound,CC50
1,CCN1CCc2c(c3cc(OC)c(OC)cc3c3cc(OC)ccc23)C1 [Compound 5],> 10000 nM
2,COc1cc2c3c(c4cc(OC)c(OC)cc4c2cc1OC)C[N+]1([O-])CCCC1C3 (centres unmarked) [Compound 6],> 10000 nM

# Test system: Vero E6 cells
# Experiment: Vero E6 cell viability by MTS (Dengue study)
# Assay type: cell-based
# Details: not given
# Experimental: as §2
row,Compound,CC50
1,"CCN1Cc2c(c3cc(OC)c(OC)cc3c3cc(OC)c(OC)cc23)C(O)C1 (single isomer, unassigned) [Compound 9]",> 5000 nM

# Test system: not listed separately
# Experiment: Vero E6 cell viability by MTS (Dengue study)
# Assay type: cell-based
# Details: African green monkey, Vero E6 cells
# Experimental: as §2
row,Compound,CC50
1,"CCN1Cc2c(c3cc(OC)c(OC)cc3c3cc(OC)c(OC)cc23)C(O)C1 (single isomer, unassigned) [Compound 7]",> 5000 nM
2,CCN1CCc2c(c3cc(OC)c(OC)cc3c3cc(OC)ccc23)C1 [Compound 5],> 5000 nM
3,COc1cc2c3c(c4cc(OC)c(OC)cc4c2cc1OC)C[N+]1([O-])CCCC1C3 (centres unmarked) [Compound 6],> 5000 nM
4,CCCN1Cc2c(c3cc(OC)c(OC)cc3c3cc(OC)c(OC)cc23)C(O)C1 (centres unmarked) [Compound 8],> 5000 nM

# Test system: Vero E6 cells
# Experiment: Vero E6 cell viability by MTS (Zika study)
# Assay type: cell-based
# Details: not given
# Experimental: as §3
# (§4) Their cytotoxic effects were also determined by the MTS assay described above using Vero E6 cells.
row,Compound,CC50
1,"CCN1Cc2c(c3cc(OC)c(OC)cc3c3cc(OC)c(OC)cc23)C(O)C1 (single isomer, unassigned) [Compound 9]",> 5000 nM

# Test system: not listed separately
# Experiment: Vero E6 cell viability by MTS (Zika study)
# Assay type: cell-based
# Details: African green monkey, Vero E6 cells
# Experimental: as §3, §4
row,Compound,CC50
1,"CCN1Cc2c(c3cc(OC)c(OC)cc3c3cc(OC)c(OC)cc23)C(O)C1 (single isomer, unassigned) [Compound 7]",> 5000 nM
2,CCN1CCc2c(c3cc(OC)c(OC)cc3c3cc(OC)ccc23)C1 [Compound 5],> 5000 nM
3,COc1cc2c3c(c4cc(OC)c(OC)cc4c2cc1OC)C[N+]1([O-])CCCC1C3 (centres unmarked) [Compound 6],> 5000 nM
4,CCCN1Cc2c(c3cc(OC)c(OC)cc3c3cc(OC)c(OC)cc23)C(O)C1 (centres unmarked) [Compound 8],> 5000 nM
